The values below come from article PMC6100259, “Insights into Structure-Activity Relationships of 3-Arylhydrazonoindolin-2-One Derivatives for Their Multitarget Activity on β-Amyloid Aggregation and Neurotoxicity” (Molecules : A Journal of Synthetic Chemistry and Natural …, 2018).

In general, inhibition refers to the drop in the measured response relative to a control, in per cent.

Where two headings read alike, the source gives them in different places. Bounds are passed on as bounds.

Data set [1] has as its target T1, Aβ40 peptide (Homo sapiens, UniProt P05067).
T1 construct: we preferred using Aβ40 peptide
Nature of the data set: Inhibition of Aβ40 aggregation, ThT fluorescence-based method. The format is biochemical. The settings on record: for fold less potent than compound 1 (Aβ40 aggregation): ratio of IC50s vs compound 1; for Aβ aggregation inhibition, result in words: Aβ40, ThT assay; for inhibition at 100 µM: Aβ40, compound 100 µM, ThT fluorescence, read-out: % Inhibition @ 100 µM, Aβ antiaggregating activity. The protocol:
In vitro inhibition of Aβ aggregation was assessed through a ThT fluorescence-based method, with the use of 2% 1,1,1,3,3,3-hexafluoroisopropanol (HFIP) as aggregation enhancer. In this medium-throughput assay, we preferred using Aβ40 peptide, being more manageable than Aβ42 and less prone to the formation of preaggregates. Samples of Aβ were co-incubated with test molecules in PBS at 100 µM concentration and the antiaggregating activities were measured after 2 h of incubation at 25 °C. For compounds showing >80% Aβ40 aggregation inhibition, IC50s were determined.
The spectrofluorimetric assays, measuring ThT fluorescence in the presence of Aβ, were done as previously described. Briefly, coincubation samples were prepared as described above (Section 2.2 and Section 2.3) in 96-well black, non-binding microplates (Greiner Bio-One GmbH, Frickenhausen, Germany). Fluorimetric reads were performed in a multiplate reader Infinite M1000 Pro (Tecan, Cernusco sul Naviglio, Italy). Each concentration point was run in triplicate. CD ellipticity measures were performed as detailed in ref. [20], following the increase of the negative band at 215 nm as indicative of β-sheet arrangement.

Data set [2] in a line: Lipophilicity by RP-HPLC (log k'w). The format is physicochemical. The settings on record: RP-HPLC C18, MeOH/10 mM ammonium formate buffer pH 4.5, extrapolated to 100% aqueous mobile phase, 25 °C. The procedure: To place on a more quantitative basis the above SAR trends, the lipophilicity of a number of isatin arylhydrazone derivatives was measured by an RP-HPLC method. The polycratic capacity factors (log k’w) were determined (details in the Experimental Section). Lipophilicity descriptors (i.e., 1-octanol–water partition coefficients) were also calculated (CLOGPs) using two computational tools (Bio-Loom software, v. 1.7 and ACDLabs software, release 10.0). The ACDLabs software was used also for calculating descriptors of polarizability and size, namely molar refractivity (CMR) and molar volume (MV). The experimental lipophilicity parameters (log k’w), along with CMR and MV, are reported in Table 6 for 18 compounds achieving finite IC50s (<100 µM) in the Aβ aggregation assay.
The lipophilicity parameters were determined by an RP-HPLC technique. Methanol solutions of the investigated hydrazone compounds (0.5 mg/mL) were injected into an Agilent 1260 infinity HPLC system (Agilent Technologies Italia, Milan), equipped with a diode array detector (DAD), and a Phenomenex Kinetex C18 column (150 × 4.6 mm, 5 μ, Phenomenex Italy s.r.l., Castel Maggiore, BO, Italy), and eluted at different mobile phase compositions (0.05 increments of MeOH volume fraction in 10 mM ammonium formate buffer at pH 4.5, ranging ϕ between 0.85 and 0.30). All RP-HPLC measurements were carried out at 25 ± 1 °C, at a flow rate of 1.0 mL/min, and at 254 nm wavelength.
The logarithm of capacity factors (log k′ = log (tR − t0)/t0) of each compound at different mobile phase compositions have been calculated; tR represents the retention time of the solute and t0 is the column dead time, measured as the elution time of a KNO3 solution in MeOH. For each compound, the log k′ values increased linearly with decreasing MeOH volume fraction. Logarithms of capacity factors extrapolated to the 100% aqueous mobile phase (log k′w) were calculated from the linear regressions on at least five data points (r^2 > 0.975).

Setting [3] is: Aβ40 aggregation inhibition, read-out: pIC50, Aβ antiaggregating potency (converted).
[4] abbreviates: 2% HFIP, PBS, 2 h at 25 °C, mean ± SEM of three independent experiments.

T1 sequence (P05067 672-711 limits assumed): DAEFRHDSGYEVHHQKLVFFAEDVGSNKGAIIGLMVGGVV

Turning to `COc1cccc(-c2csc(N/N=C3\C(=O)Nc4ccc(OC)cc43)n2)c1` [Compound 17, (Z)-5-Methoxy-3-(2-(4-(3-methoxyphenyl)thiazol-2-yl)hydrazono)indolin-2-one], the IC50 in data set [1] (setting [3]) was 33.9 µM. The “log k'w” value in data set [2] was 5.29.

For `COc1ccc2c(c1)/C(=N/Nc1cc(C(F)(F)F)cc(C(F)(F)F)c1)C(=O)N2` [Compound 6, (Z)-3-(2-(3,5-bis(trifluoromethyl)phenyl)hydrazono)-5-methoxyindolin-2-one], in data set [1], the IC50 was 9.9 ± 0.8 µM and the “fold less potent than compound 1 (Aβ40 aggregation)” value was 25 fold. Moreover, the “log k'w” value in data set [2] was 6.29.

Take `COc1ccc2c(c1)/C(=N/Nc1nc(C)c(C)s1)C(=O)N2` [Compound 14, (Z)-3-(2-(4,5-Dimethylthiazol-2-yl)hydrazono)-5-methoxyindolin-2-one]: the “Aβ aggregation inhibition, result in words” value (“Aβ aggregation inhibition” below) in data set [1] is listed as “very weak inhibitor”. Moreover, the inhibition at 100 µM in data set [1] (setting [4]) is 43%.

For the molecule `CC(C)c1ccc(NN=C2C(=O)Nc3c(Br)cccc32)cc1` [Compound 37, 7-Bromo-3-(2-(4-isopropylphenyl)hydrazono)indolin-2-one], the “Aβ aggregation inhibition” value in data set [1] is “complete loss of activity”. Moreover, the inhibition at 100 µM in data set [1] (setting [4]) is less than 5%.

Turning to `CC(C)c1ccc(NN=C2C(=O)Nc3ccc(S(=O)(=O)O)cc32)cc1` [Compound 38, Sodium 3-(2-(4-isopropylphenyl)hydrazono)-2-oxoindolin-5-sulfonate], in data set [1] (setting [4]), the inhibition at 100 µM turned out to be 35 ± 4%.

On to `COc1ccc2c(c1)/C(=N/Nc1ccc(C(C)C)cc1)C(=O)N2CCc1ccccc1` [Compound 33, (Z)-3-(2-(4-Isopropylphenyl)hydrazono)-5-methoxy-1-phenethylindolin-2-one], for which, in data set [1], the IC50 stood at 0.61 ± 0.03 µM. Further, the “log k'w” value in data set [2] is reported as 7.24.

As to `COc1ccc2c(c1)/C(=N/Nc1ccc3ccccc3n1)C(=O)N2` [Compound 9, (Z)-5-Methoxy-3-(2-(quinolin-2-yl)hydrazono)indolin-2-one], the inhibition at 100 µM in data set [1] (setting [4]) was 67%.

Consider `CC(C)c1ccc(N/N=C2\C(=O)Nc3cc4c(cc32)OCO4)cc1` [Compound 39, (Z)-7-(2-(4-isopropylphenyl)hydrazono)-5H-[1,3]dioxolo[4,5-f]indol-6(7H)-one], for which the inhibition at 100 µM in data set [1] (setting [4]) turned out to be 70 ± 4%.

Turning to `COc1ccc2c(c1)/C(=N/Nc1nc(-c3cccc(Br)c3)cs1)C(=O)N2` [Compound 18, (Z)-3-(2-(4-(3-Bromophenyl)thiazol-2-yl)hydrazono)-5-methoxyindolin-2-one], in data set [1] (setting [3]), the IC50 is 39.8 µM. Besides, the “log k'w” value in data set [2] is listed as 5.67.

`COc1ccc2c(c1)/C(=N/Nc1ccccn1)C(=O)N2` [Compound 7, (Z)-5-Methoxy-3-(2-(pyridin-2-yl)hydrazono)indolin-2-one]: the IC50 in data set [1] was found to be 90 ± 5 µM. The “log k'w” value in data set [2] is recorded as 2.34.

`COc1ccc2c(c1)C(=NNC(=O)c1cccc(Cl)c1)C(=O)N2` [Compound 23, 3-Chloro-N’-(5-methoxy-2-oxoindolin-3-ylidene)benzohydrazide]: in data set [1], the “Aβ aggregation inhibition” value is given as “sharp drop of activity”. The inhibition at 100 µM in data set [1] (setting [4]) was found to be 31%.

For `COc1ccc2c(c1)/C(=N/N(C)c1ccc(C(C)C)cc1)C(=O)N2C` [Compound 24, (Z)-3-(2-(4-Isopropylphenyl)-2-methylhydrazono)-5-methoxy-1-methylindolin-2-one], in data set [1] (setting [3]), the IC50 is 11 µM. Moreover, in data set [1] (vs non-methylated compound 26), the “fold decrease in inhibition potency compared with 26” value is “more than 10 fold”. Also, in data set [2], the “log k'w” value is given as 4.23.

Regarding `COc1ccc2c(c1)/C(=N/Nc1cccc3cccnc13)C(=O)N2` [Compound 10, (Z)-5-Methoxy-3-(2-(quinolin-8-yl)hydrazono)indolin-2-one], the inhibition at 100 µM in data set [1] (setting [4]) stood at 58%.

`COc1ccc2c(c1)/C(=N/Nc1ccnc3cc(Cl)ccc13)C(=O)N2` [Compound 11, (Z)-3-(2-(7-Chloroquinolin-4-yl)hydrazono)-5-methoxy-indolin-2-one]: the “Aβ aggregation inhibition” value in data set [1] is on record as “very weak inhibitor”. Further, the inhibition at 100 µM in data set [1] (setting [4]) was 14%.

With `COc1ccc2c(c1)/C(=N\N=C/c1cccc(Cl)c1)C(=O)N2` [Compound 22, (Z)-3-((E)-(3-chlorobenzylidene)hydrazono)-5-methoxyindolin-2-one], the IC50 in data set [1] (setting [3]) is 11 µM. In data set [2], the “log k'w” value is on record as 4.21.

For `CCCCc1ccc2c(c1)C(=NNc1ccc(C(C)C)cc1)C(=O)N2` [Compound 36, 5-Butyl-3-(2-(4-isopropylphenyl)hydrazono)indolin-2-one], in data set [1] (setting [4]), the inhibition at 100 µM amounted to 55 ± 1%.

Consider `COc1ccc2c(c1)/C(=N/Nc1ccc(C(F)(F)F)cc1)C(=O)N2` [Compound 5, (Z)-5-Methoxy-3-(2-(4-(trifluoromethyl)phenyl)hydrazono)indolin-2-one], for which the inhibition at 100 µM in data set [1] (setting [4]) worked out at 57%.

In the case of `COc1ccc2c(c1)/C(=N/Nc1nc(-c3ccccc3)cs1)C(=O)N2` [Compound 15], the IC50 in data set [1] (setting [3]) was 1.2 µM. Also, in data set [2], the “log k'w” value was 5.10.

`COc1ccc2c(c1)/C(=N\N=C/c1ccc(C(C)C)cc1)C(=O)N2` [Compound 21, (Z)-3-((E)-(4-Isopropylbenzylidene)hydrazono)-5-methoxyindolin-2-one]: the IC50 in data set [1] (Aβ40, ThT fluorescence, 2% HFIP, PBS, 2 h at 25 °C, mean ± SEM of three independent experiments, read-out: IC50 (µM), Aβ antiaggregating activity) turned out to be 6.7 ± 0.2 µM. In data set [2], the “log k'w” value was 4.82.

In turn, `COc1ccc2c(c1)/C(=N/Nc1ccc(C(C)C)cc1)C(=O)N2Cc1ccccc1` [Compound 32, (Z)-1-Benzyl-3-(2-(4-isopropylphenyl)hydrazono)-5-methoxyindolin-2-one] yielded an IC50 in data set [1] of 0.53 ± 0.1 µM. Moreover, in data set [2], the “log k'w” value is 7.44.

In the case of `COc1ccc2c(c1)/C(=N/Nc1cccc3ccccc13)C(=O)N2` [Compound 8, (Z)-5-Methoxy-3-(2-(naphthalen-1-yl)hydrazono)indolin-2-one], the IC50 in data set [1] (setting [3]) was 28.2 µM. Moreover, the “log k'w” value in data set [2] was 5.15.

As to `COc1ccc2c(c1)/C(=N/Nc1nc(CCl)cs1)C(=O)N2` [Compound 13, (Z)-3-(2-(4-(Chloromethyl)thiazol-2-yl)hydrazono)-5-methoxyindolin-2-one], the IC50 in data set [1] (setting [3]) was 12.9 µM. Moreover, the “log k'w” value in data set [2] is 3.95.

Consider `COc1ccc2c(c1)/C(=N/Nc1nc(-c3cccc(O)c3)cs1)C(=O)N2` [Compound 16, (Z)-3-(2-(4-(3-Hydroxyphenyl)thiazol-2-yl)hydrazono)-5-methoxyindolin-2-one], for which the IC50 in data set [1] (setting [3]) was 15.8 µM. In data set [2], the “log k'w” value was 4.58.

For `COc1ccc2c(c1)/C(=N/Nc1ccc(C#N)cc1)C(=O)N2` [Compound 4, (Z)-4-(2-(5-Methoxy-2-oxoindolin-3-ylidene)hydrazinyl)benzonitrile], the inhibition at 100 µM in data set [1] (setting [4]) was found to be 16%.

`COc1ccc2c(c1)/C(=N/Nc1ccc(C(C)C)cc1)C(=O)N2CCCc1ccccc1` [Compound 34, (Z)-3-(2-(4-Isopropylphenyl)hydrazono)-5-methoxy-1-(3-phenylpropyl)indolin-2-one]: the IC50 in data set [1] worked out at 0.83 ± 0.2 µM. Also, the “log k'w” value in data set [2] was 7.87.

In the case of `COc1ccc2[nH]cc(/C=N/Nc3ccc(C(C)C)cc3)c2c1` [Compound 19], in data set [1], the IC50 amounted to 41 ± 3 µM and the “fold less potent than compound 1 (Aβ40 aggregation)” value is on record as 100 fold. The “log k'w” value in data set [2] is on record as 6.42.

`COc1ccc2c(c1)/C(=N/Nc1ccc(C(C)C)cc1)C(=O)N2C` [Compound 26, (Z)-3-(2-(4-Isopropylphenyl)hydrazono)-5-methoxy-1-methylindolin-2-one] showed an IC50 in data set [1] of 0.81 ± 0.11 µM. Besides, the “log k'w” value in data set [2] is given as 5.96.
